The target in the test is T1, Caspase-3 (Homo sapiens, UniProt P42574).
T1 sequence (P42574 whole entry): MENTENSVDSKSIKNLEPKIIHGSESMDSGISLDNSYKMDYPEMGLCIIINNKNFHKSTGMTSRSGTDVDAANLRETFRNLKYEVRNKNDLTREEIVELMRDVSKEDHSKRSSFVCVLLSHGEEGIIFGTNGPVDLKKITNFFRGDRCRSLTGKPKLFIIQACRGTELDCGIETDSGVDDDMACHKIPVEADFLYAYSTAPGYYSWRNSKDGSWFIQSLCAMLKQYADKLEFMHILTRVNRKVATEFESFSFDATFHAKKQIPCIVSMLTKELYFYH

SMILES strings stand for the structures.

On to `O=C1Nc2ccc(S(=O)(=O)N3CCC[C@H]3COc3cccnc3)cc2C1=O` [5-{[(2S)-2-[(pyridin-3-yloxy)methyl]pyrrolidine-1-]sulfonyl}-2,3-dihydro-1H-indole-2,3-dione], for which the Ki was 16.1 nM.
Under `O=C(O)C[C@H](NC(=O)[C@@H](c1ccccc1)n1cccc(NC(=O)c2ccc3ccccc3c2)c1=O)C(=O)COc1ccccc1` [(3S)-3-[(1R)-1-[3-(naphthalene-2-amido)-2-oxo-1,2-dihydropyridin-1-yl]-1-phenylacetamido]-4-oxo-5-phenoxypentanoic acid] stands 165 nM; under `CN1C(=O)C(=O)c2cc(S(=O)(=O)N3CCC[C@H]3COc3ccccc3)ccc21` [(S)-1-Methyl-5-{1-[2-(phenoxymethyl)pyrrolidinyl]sulfonyl}isatin], 11 nM.
The figure for `O=C1C(=O)N(Cc2ccccc2)c2ccc(S(=O)(=O)N3CCC[C@H]3COc3ccccc3)cc21` [JMC522188 Compound 2] is 2.5 nM.

One may read the Ki as the dissociation constant of the complex between target and ligand, obtained from inhibition or displacement. A high value points to a looser hold on the target.

The record behind these values is BindingDB's records for doi:10.1021/bi7000505 (Wyeth Research, 2007).
